From patent US7935815B2, “Imidazoyl pyridine compounds and salts thereof” (Eisai R&D Management Co., Ltd., priority 2007, dated 2011)

test system: Aβ42 production; assay: Quantification of Aβ peptide in culture of neurons from rat fetus brain (Aβ ELISA); format: cell-based; details: Rattus norvegicus, Neuron, 72 h, rat primary neuronal culture (embryonic day 18 Wistar rat cerebral cortex); cultured three days after addition of compound; Aβx-42 ELISA of the medium; read-out: Aβ42 production reducing effect IC50
Procedure: Quantification of Aβ Peptide in Culture of Neurons from Rat Fetus Brain
(1) Rat Primary Neuronal Culture
Primary neuronal cultures were prepared from the cerebral cortex of embryonic day 18 Wistar rats (Charles River Japan, Yokohama, Japan). Specifically, the embryos were aseptically removed from pregnant rats under ether anesthesia. The brain was isolated from the embryo and immersed in an ice-cold L-15 medium (Invitrogen Corp. Cat #11415-064, Carlsbad, Calif., USA, or SIGMA L1518, for example). The cerebral cortex was collected from the isolated brain under a stereoscopic microscope. The cerebral cortex fragments collected were enzymatically treated in an enzyme solution containing 0.25% trypsin (Invitrogen Corp. Cat #15050-065, Carlsbad, Calif., USA) and 0.01% DNase (Sigma D5025, St. Louis, Mo., USA) at 37° C. for 30 minutes to disperse the cells. Here, the enzymatic reaction was stopped by adding inactivated horse serum to the solution. The enzymatically treated solution was centrifuged at 1,500 rpm for five minutes to remove the supernatant. 5 to 10 ml of a medium was added to the resulting cell mass. Neurobasal medium (Invitrogen Corp. Cat #21103-049, Carlsbad, Calif., USA) supplemented with 2% B27 supplement (Invitrogen Corp. Cat #17504-044, Carlsbad, Calif., USA), 25 μM 2-mercaptoethanol (2-ME, WAKO Cat #139-06861, Osaka, Japan), 0.5 mM L-glutamine (Invitrogen Corp. Cat #25030-081, Carlsbad, Calif., USA), and Antibiotics-Antimycotics (Invitrogen Corp. Cat #15240-062, Carlsbad, Calif., USA) was used as the medium (Neurobasal/B27/2-ME). However, the above Neurobasal medium not supplemented with 2-ME (Neurobasal/B27) was used for the assay. The cells were redispersed by mild pipetting of the cell mass to which the medium was added. The cell dispersion was filtered through a 40-μm nylon mesh (Cell Strainer, Cat #35-2340, Becton Dickinson Labware, Franklin Lakes, N.J., USA) to remove the remaining cell mass, and thus a neuronal cell suspension was obtained. The neuronal cell suspension was diluted with the medium and then plated in a volume of 100 μl/well at an initial cell density of 5×10^5 cells/cm^2 in a 96-well polystyrene culture plate pre-coated with poly-L or D-lysine (Falcon Cat #35-3075, Becton Dickinson Labware, Franklin Lakes, N.J., USA coated with poly-L-lysine using the method shown below, or BIOCOAT™ cell environments Poly-D-lysine cell ware 96-well plate, Cat #35-6461, Becton Dickinson Labware, Franklin Lakes, N.J., USA). Poly-L-lysine coating was carried out as follows. 100 μg/ml of a poly-L-lysine (SIGMA P2636, St. Louis, Mo., USA) solution was aseptically prepared with a 0.15 M borate buffer (pH 8.5). 100 μl/well of the solution was added to the 96-well polystyrene culture plate and incubated at room temperature for one or more hours or at 4° C. overnight or longer. The coated 96-well polystyrene culture plate was washed with sterile water four or more times, and then dried or rinsed with, for example, sterile PBS or medium, and used for cell plating. The plated cells were cultured in the culture plate at 37° C. in 5% CO2-95% air for one day. Then, the total amount of the medium was replaced with a fresh Neurobasal™/B27/2-ME medium, and then the cells were cultured for further three days.
The drug was added to the culture plate on Day 4 of culture as follows. The total amount of the medium was removed from the wells, and 180 μl/well of Neurobasal medium not containing 2-ME and containing 2% B-27 (Neurobasal/B27) was added thereto. A solution of the test compound in dimethyl sulfoxide (hereinafter abbreviated as DMSO) was diluted with Neurobasal/B27 at 10-fold of the final concentration. 20 μl/well of the dilution was added to and sufficiently mixed with the medium. The final DMSO concentration was 1% or less. Only DMSO was added to the control group.
The cells were cultured for three days after addition of the compound, and the total amount of the medium was collected. […]

Row | SMILES | IC50 [nM]
1 | COc1nc(/C=C/c2nc3n(n2)CCC[C@H]3c2cc(F)c(F)c(F)c2)ccc1-n1cnc(C)c1 (single isomer, unassigned) [Example 169, (−)-2-{(E)-2-[6-methoxy-5-(4-methyl-1H-imidazol-1-yl)pyridin-2-yl]vinyl}-8-(3,4,5-trifluorophenyl)-5,6,7,8-tetrahydro-[1,2,4]triazolo[1,5-a]pyridine] | 22
2 | COc1nc(/C=C/c2nc3n(n2)CCCC3c2ccc(F)c(F)c2)ccc1-n1cnc(C)c1 (single isomer, unassigned) [Example 171, (−)-8-(3,4-difluorophenyl)-2-{(E)-2-[6-methoxy-5-(4-methyl-1H-imidazol-1-yl)pyridin-2-yl]vinyl}-5,6,7,8-tetrahydro-[1,2,4]triazolo[1,5-a]pyridine] | 17
3 | COc1nc(/C=C/c2nc3n(n2)CCCC3c2ccc(F)cc2)ccc1-n1cnc(C)c1 (single isomer, unassigned) [Example 173, (−)-8-(4-fluorophenyl)-2-{(E)-2-[6-methoxy-5-(4-methyl-1H-imidazol-1-yl)pyridin-2-yl]vinyl}-5,6,7,8-tetrahydro-[1,2,4]triazolo[1,5-a]pyridine] | 37
4 | COc1nc(/C=C/c2nc3n(n2)CCC[C@@H]3c2ccc(F)c(Cl)c2)ccc1-n1cnc(C)c1 (single isomer, unassigned) [Example 175, (−)-8-(3-chloro-4-fluorophenyl)-2-{(E)-2-[6-methoxy-5-(4-methyl-1H-imidazol-1-yl)pyridin-2-yl]vinyl}-5,6,7,8-tetrahydro-[1,2,4]triazolo[1,5-a]pyridine] | 38
5 | COc1nc(/C=C/c2nc3n(n2)CCC[C@@H]3c2cc(F)c(F)cc2F)ccc1-n1cnc(C)c1 (single isomer, unassigned) [Example 179, (−)-8-(2,4,5-trifluorophenyl)-2-{(E)-2-[6-methoxy-5-(4-methyl-1H-imidazol-1-yl)pyridin-2-yl]vinyl}-5,6,7,8-tetrahydro[1,2,4]triazolo[1,5-a]pyridine] | 22
6 | COc1nc(/C=C/c2nc3n(n2)CCC[C@@H]3c2cc(F)ccc2F)ccc1-n1cnc(C)c1 (single isomer, unassigned) [Example 183, (−)-8-(2,5-difluorophenyl)-2-{(E)-2-[6-methoxy-5-(4-methyl-1H-imidazol-1-yl)pyridin-2-yl]vinyl}-5,6,7,8-tetrahydro[1,2,4]triazolo[1,5-a]pyridine] | 48
7 | COc1nc(/C=C/c2nc3n(n2)CCC[C@H]3c2ccc(F)cc2Br)ccc1-n1cnc(C)c1 (single isomer, unassigned) [Example 185, (−)-8-(2-bromo-4-fluorophenyl)-2-{(E)-2-[6-methoxy-5-(4-methyl-1H-imidazol-1-yl)pyridin-2-yl]vinyl}-5,6,7,8-tetrahydro-[1,2,4]triazolo[1,5-a]pyridine] | 34
8 | COc1nc(/C=C/c2nc3n(n2)CCC[C@H]3c2ccc(F)cc2Cl)ccc1-n1cnc(C)c1 (single isomer, unassigned) [Example 187, (−)-8-(2-chloro-4-fluorophenyl)-2-{(E)-2-[6-methoxy-5-(4-methyl-1H-imidazol-1-yl)pyridin-2-yl]vinyl}-5,6,7,8-tetrahydro-[1,2,4]triazolo[1,5-a]pyridine] | 38
9 | COc1nc(/C=C/c2nc3n(n2)CCC[C@@H]3c2cccc(F)c2)ccc1-n1cnc(C)c1 (single isomer, unassigned) [Example 189, (−)-8-(3-fluorophenyl)-2-{(E)-2-[6-methoxy-5-(4-methyl-1H-imidazol-1-yl)pyridin-2-yl]vinyl}-5,6,7,8-tetrahydro[1,2,4]triazolo[1,5-a]pyridine] | 43
10 | COc1nc(/C=C/c2nc3n(n2)CCC[C@H]3c2ccccc2Cl)ccc1-n1cnc(C)c1 (single isomer, unassigned) [Example 193, (−)-8-(2-chlorophenyl)-2-{(E)-2-[6-methoxy-5-(4-methyl-1H-imidazol-1-yl)pyridin-2-yl]vinyl}-5,6,7,8-tetrahydro-[1,2,4]triazolo[1,5-a]pyridine] | 80
11 | COc1nc(/C=C/c2nc3n(n2)CCC[C@H]3c2ccccc2C(F)(F)F)ccc1-n1cnc(C)c1 (single isomer, unassigned) [Example 195] | 17
12 | COc1nc(/C=C/c2nc3n(n2)CCC[C@H]3c2cccc3ccccc23)ccc1-n1cnc(C)c1 (single isomer, unassigned) [Example 199, (+)-2-{(E)-2-[6-methoxy-5-(4-methyl-1H-imidazol-1-yl)pyridin-2-yl]vinyl}-8-(naphthalen-1-yl)-5,6,7,8-tetrahydro-[1,2,4]triazolo[1,5-a]pyridine] | 23
13 | COc1nc(/C=C/c2nc3n(n2)CCC[C@H]3c2ccccc2)ccc1-n1cnc(C)c1 (single isomer, unassigned) [Example 207, (−)-2-{(E)-2-[6-methoxy-5-(4-methyl-1H-imidazol-1-yl)pyridin-2-yl]vinyl}-8-phenyl-5,6,7,8-tetrahydro-[1,2,4]triazolo[1,5-a]pyridine] | 28
14 | COc1cc(/C=C/c2nc3n(n2)CCCC3c2ccc(F)cc2)cnc1-n1cnc(C)c1 (single isomer, unassigned) [Example 212, (−)-8-(4-fluorophenyl)-2-{(E)-2-[5-methoxy-6-(4-methyl-1H-imidazol-1-yl)pyridin-3-yl]vinyl}-5,6,7,8-tetrahydro-[1,2,4]triazolo[1,5-a]pyridine] | 100
15 | COc1cc(/C=C/c2nc3n(n2)CCCC3c2ccc(F)c(F)c2)cnc1-n1cnc(C)c1 (single isomer, unassigned) [Example 218, (−)-8-(3,4-difluorophenyl)-2-{(E)-2-[5-methoxy-6-(4-methyl-1H-imidazol-1-yl)pyridin-3-yl]vinyl}-5,6,7,8-tetrahydro-[1,2,4]triazolo[1,5-a]pyridine] | 69
16 | COc1cc(/C=C/c2nc3n(n2)CCC[C@@]3(C#N)c2cc(F)c(F)c(F)c2)cnc1-n1cnc(C)c1 (single isomer, unassigned) [Example 229, (−)-2-{(E)-2-[5-methoxy-6-(4-methyl-1H-imidazol-1-yl)pyridin-3-yl]vinyl}-8-(3,4,5-trifluorophenyl)-5,6,7,8-tetrahydro-[1,2,4]triazolo[1,5-a]pyridine-8-carbonitrile] | 169
17 | COc1nc(/C=C/c2nc3n(n2)CC[C@@H]3c2cc(F)c(F)c(F)c2)ccc1-n1cnc(C)c1 (single isomer, unassigned) [Example 254, (−)-2-{(E)-2-[6-methoxy-5-(4-methyl-1H-imidazol-1-yl)pyridin-2-yl]vinyl}-7-(3,4,5-trifluorophenyl)-6,7-dihydro-5H-pyrrolo[1,2-b][1,2,4]triazole] | 50
18 | COc1nc(/C=C/c2nc3n(n2)CCOC3c2ccc(Cl)cc2)ccc1-n1cnc(C)c1 (single isomer, unassigned) [Example 262, (−)-8-(4-chlorophenyl)-2-{(E)-2-[6-methoxy-5-(4-methyl-1H-imidazol-1-yl)pyridin-2-yl]vinyl}-5,6-dihydro-8H-[1,2,4]triazolo[5,1-c][1,4]oxazine] | 74
19 | COc1nc(/C=C/c2nc3n(n2)CCC[C@H]3c2cccc(F)c2F)ccc1-n1cnc(C)c1 (single isomer, unassigned) [Example 280, (−)-8-(2,3-difluorophenyl)-2-{(E)-2-[6-methoxy-5-(4-methyl-1H-imidazol-1-yl)pyridin-2-yl]vinyl}-5,6,7,8-tetrahydro-[1,2,4]triazolo[1,5-a]pyridine] | 18
